Laboratory results from patent US9896491B2, “Composition for treatment of multiple sclerosis” (LIFEBIO LABORATORIES LLC, priority 2009, dated 2018).
Like-named read-outs stand apart in the source and are kept apart here.

Assays:
[1] = system: ESAMBPCAA; assay: ESAMBPCAA mediated MBP hydrolysis in serum of treated EAE DA rats; format: in vivo; settings: days 8-12; for rates of MBP-specific auto antibody mediated hydrolysis: 120 μg daily intranasal, median for 6 animals; for suppression of MBP-specific auto antibody mediated hydrolysis: intranasal, dose-dependent for SEQ ID NO: 2
[2] = system: Experimental Allergic Encephalomyelitis (EAE) in DA rats; assay: MDS score in EAE DA rats; format: in vivo; settings: intranasal, days 8-12; FIG. 4; dose-dependent for SEQ ID NO: 2
[3] = system: ESAMBPCAA; assay: ESAMBPCAA mediated MBP hydrolysis in serum samples of progressive MS patients in presence of test substances; format: biochemical, human; settings: for suppressive effect on MBP-specific auto antibody mediated hydrolysis: 100 nM, summary of Table 3; for MBP-specific auto antibody mediated hydrolysis: test substance 100 nM
Procedure: (§1) MBP hydrolysis by anti MBP auto antibodies was assayed as follows: Purified antibodies (0.1-1 μg) were incubated at 37° C. for 14 h in the final volume of 12.5 μl PBS, 0.02% NaN3 containing 1-2 μg of MBP. The samples were mixed with Laemmli's buffer. The extent of MBP degradation was visualized by SDS-PAGE in Tris-glycine and Tricine buffer systems. For quantitative MBP degradation assay, MBP (10 μM) was incubated at 37° C. with antibodies (60 nM) in 0.1 ml of PBS, 0.02% NaN3 for 12 h. The reaction was stopped by adding 10% TFA up to pH 2.5. The samples were further chromatographed on column C4 4.0/150 (Waters). The amount of non-cleaved MBP was calculated by absorbance monitoring at 280 nm.
Serum samples collected from 5 patients suffering from progressive MS were quantified for ESAMBPCAA mediated MBP hydrolysis as specified in Example 1 in presence of following substances: […]

[4] = system: progressive multiple sclerosis patients; settings: 500 mg intravenously every six months; cited from earlier work
[5] = system: Experimental MS (Theiler's Virus Infection) in SJL mice; assay: Experimental MS (Theiler's Virus Infection): disease manifestation and MDS score; format: in vivo; settings: days 14-24; for % Animals affected with disease at day 100: 30 mice per group
Procedure: (§2) The BeAn strain of TMEV used in this study was generated and propagated in BHK-21 cells grown in Dulbecco's modified Eagle's medium supplemented with 7.5% donor calf serum. For i.c. infection, 30 μl of virus solution (0.2×10^6 to 6×10^6 PFU) was injected into the right cerebral hemisphere of 6- to 8-week-old SJL mice (8 animals per group) anesthetized with isoflurane. Clinical symptoms (MDS score) of disease were assessed weekly on the following grading scale: grade 0, no clinical signs; grade 1, mild waddling gait or flaccid tail; grade 2, severe waddling gait; grade 3, moderate hind limb paresis; and grade 4, severe hind limb paralysis. Serum samples collected from animals were quantified for ESAMBPCAA mediated MBP hydrolysis as specified in Example 1
(§3) At day 14 following infection mice were divided into 6 groups ([…]) and treated during 10 days (days 14-24) according following schedule: […]

[6] = system: Experimental Allergic Encephalomyelitis (EAE) in Dark Agouti (DA) Rats; assay: EAE induced by MBP 63-81 in DA rats: clinical signs score; format: in vivo; settings: for therapeutic effect: 150 μg/rat/day SC during 6 days; for Clinical signs score on day 23 after induction (mean): 150 μg/rat/day SC during 6 days from day 9-11 after EAE induction, score 0-5
Procedure: Female Dark Agouti (DA) Rats, 8-9 weeks of age, about 110-145 g of weight were used as test animals.
For induction of Experimental Allergic Encephalomyelitis (EAE), rats were injected intradermally at the base of the tail with a total volume of 200 μl of inoculum containing 50 μg of MBP 63-81 (ANASPEC), in saline mixed (1:1) with Complete Freund Adjuvant, (IFA, Sigma), and 1 mg killed M. tuberculosis strain (strain H37 RA; Difco Laboratories, Detroit, Mich.). Beginning 24 hours after EAE induction the rats were followed up daily. On day 9 after the after EAE induction more than 50% of the rats developed signs of paralysis. The animals with multiple sclerosis signs were separated into 10 groups for beginning of treatment. Prior to treatment, blood was collected from 2 rats from each group. At day 9 and 11 after EAE induction, 90% of rats developed signs of EAE.
9-11 days after EAE induction the animals were divided into 9 groups (5-6 rats in each). Each group of rats was treated subcutaneously once daily with different claimed oligopeptide or theirs combinations (equimolar mix) (150 μg) or doses of positive control item (Glatiramer acetate, Copaxone, Teva) or negative control item (0.9% Sodium chloride solution), during 6 days as follows:
Copaxone, claimed oligopeptide and combinations thereof (Mechanical mix) were diluted with 0.9% Sodium chloride to a concentration of 450 μg/ml. Volume of 0.33 ml (150 μg/rat/day) was injected SC during 6 days.
After 6 days of the injections cycle the animals were maintained and followed up till day 28th post EAE induction. Clinical signs score was performed daily during study periods. Animals were observed individually during all study periods. In cases of extended observation period clinical signs were recorded once daily. Observations included changes in the fur, eyes, respiratory rate, vocalization, paralysis, activity and behavior pattern. Score of paralysis signs related to MS of each animal was done daily (during all study periods).
Score gradation was as follows: 0—Normal; 1—Tail weakness; 2—Hind leg weakness or paralysis; 3—Hind leg paralysis, dragging hind limbs; 4—Complete paralysis, unable to move; 5—Death.

[7] = system: ESAMBPCAA; assay: ESAMBPCAA mediated MBP hydrolysis in serum of treated TMEV-infected SJL mice; format: in vivo; settings: days 14-24
Procedure: as §1, §2, §3

[8] = system: antibodies to MBP; settings: in vitro and in vivo (in blood of MS-patients); cited from earlier work
[9] = system: secondary progressive MS patients; settings: phase I; cited from earlier work
[10] = system: relapsing-remitting multiple sclerosis patients; settings: Neurology 1995; 45: 1268; cited from earlier work
[11] = system: CD20+ B lymphocytes; settings: relapsing-remitting multiple sclerosis (RRMS) patients; cited from earlier work
[12] = system: relapsing-remitting multiple sclerosis patients; settings: Neurology 1993; 43: 662-7; cited from earlier work
[13] = 20 μg of each oligopeptide daily subcutaneous

For APKRGSGKDSH [A4], the “rates of MBP-specific auto antibody mediated hydrolysis” value (shortened to “rates”) ([1]; Day 8 (start of treatment)) was 49.3 ± 4.9 pmol/min/nmol, the “rates” value ([1]; Day 16) was 45.9 ± 7.1 pmol/min/nmol and the “rates” value ([1]; Day 24) was 45.1 ± 6.3 pmol/min/nmol. For the same molecule, the “suppression of MBP-specific auto antibody mediated hydrolysis” value [1] was “active in suppression”, the “suppression of MDS score” value [2] was “active in suppression” and the “suppressive effect on MBP-specific auto antibody mediated hydrolysis” value [3] was “potent suppressive effect”. The “MBP-specific auto antibody mediated hydrolysis” value ([3]; Patient 1) was 12.1 ± 3.6 pmol/min/nmol, the “MBP-specific auto antibody mediated hydrolysis” value ([3]; Patient 2) was 15.6 ± 2.9 pmol/min/nmol and the “MBP-specific auto antibody mediated hydrolysis” value ([3]; Patient 3) was 14.3 ± 4.4 pmol/min/nmol. For the same molecule, the “MBP-specific auto antibody mediated hydrolysis” value ([3]; Patient 4) was 15.8 ± 4.9 pmol/min/nmol and the “MBP-specific auto antibody mediated hydrolysis” value ([3]; Patient 5) was 13.3 ± 5.9 pmol/min/nmol.

For “DENPVVHFFKNIVTPRT [MBP8298, synthetic peptide, amino acid residues 82-98 of MBP]”, the “responders on the treatment” value [4] is given as “responders on the treatment with MBP8298 are the patients with HLA heliotypes DR2 and/or DR4 only”.

For GFGYGGRASDYKSAHK [SEQ ID NO: 3], the therapeutic effect [5, 13] was “moderate therapeutic effect”, the “% Animals affected with disease at day 100” value (“% Animals affected” for short) [5, 13] was 25(30) % and the therapeutic effect [6] was “moderate therapeutic effect”. For the same molecule, the “Clinical signs score on day 23 after induction (mean)” value (shortened to “Clinical signs score”) [6] was 0.9, the “ESAMBPCAA activity at day 100” value [7, 13] was 40 ± 3.1 pmol/min/nmol and the “suppression of MBP-specific auto antibody mediated hydrolysis” value [7, 13] was “do not affect”.

For “MBP 35-58: non-binding, control peptide, human MBP 35-58 (LSRTTSEDNEVFGEADANQNNGTS; UniProt P02686 35-58, looked up, fragment)”, the “effect on free and bound antibodies to MBP” value [8] is listed as “no effect”.

In the case of “MBP 75-95: soluble synthetic peptide, residues 75-95 of human MBP (WO 98/45327) (NAWQDAHPADPGSRPHLIRLF; UniProt P02686 75-95, looked up, fragment)”, the “effect on free and bound antibodies to MBP” value [8] is given as “showed its ability to bound free antibodies to MBP both in vitro and in vivo”.

In the case of “MBP 84-102: MBP 84-102 fragment (U.S. Pat. No. 5,858,980) (DPGSRPHLIRLFSRDAPGR; UniProt P02686 84-102, looked up, fragment)”, the “treatment efficacy (Expanded Disability Status Scale, Nine Hole Peg Test, new lesions by Magnetic Resonance Imaging)” value [9] is listed as “No treatment efficacy were detected”.

In the case of QGTLSKIFKLGGRDSRSGSPMARR [SEQ ID NO: 4], the therapeutic effect [5, 13] is reported as “moderate therapeutic effect”, the “% Animals affected” value [5, 13] is reported as 27(30) % and the therapeutic effect [6] is reported as “moderate therapeutic effect”. For the same molecule, the “Clinical signs score” value [6] was 0.8, the “ESAMBPCAA activity at day 100” value [7, 13] was 35.3 ± 5.1 pmol/min/nmol and the “suppression of MBP-specific auto antibody mediated hydrolysis” value [7, 13] was “do not affect”.

With “RGAPKRGSGKRGAPKRGSGKRGAPKRGSGKRGAPKRGSGKRGAPKRGSGKRGAPKRGSGK [A6]” the “rates” value ([1]; Day 8 (start of treatment)) was 45.7 ± 6.5 pmol/min/nmol, the “rates” value ([1]; Day 16) was 48.1 ± 7.4 pmol/min/nmol and the “rates” value ([1]; Day 24) was 39.4 ± 4.6 pmol/min/nmol. The “suppression of MBP-specific auto antibody mediated hydrolysis” value [1] was “active in suppression”, the “suppression of MDS score” value [2] was “active in suppression” and the “suppressive effect on MBP-specific auto antibody mediated hydrolysis” value [3] was “potent suppressive effect”. For the same molecule, the “MBP-specific auto antibody mediated hydrolysis” value ([3]; Patient 1) was 7.7 ± 3.3 pmol/min/nmol, the “MBP-specific auto antibody mediated hydrolysis” value ([3]; Patient 2) was 22.3 ± 4.2 pmol/min/nmol and the “MBP-specific auto antibody mediated hydrolysis” value ([3]; Patient 3) was 20.1 ± 3.9 pmol/min/nmol. The “MBP-specific auto antibody mediated hydrolysis” value ([3]; Patient 4) was 21.5 ± 6.6 pmol/min/nmol and the “MBP-specific auto antibody mediated hydrolysis” value ([3]; Patient 5) was 5.0 ± 1.8 pmol/min/nmol.

With SGKDS [A5] the “MBP-specific auto antibody mediated hydrolysis” value ([3]; Patient 1) was 57 ± 4.1 pmol/min/nmol, the “MBP-specific auto antibody mediated hydrolysis” value ([3]; Patient 2) was 59.7 ± 5.7 pmol/min/nmol and the “MBP-specific auto antibody mediated hydrolysis” value ([3]; Patient 3) was 44.2 ± 6.6 pmol/min/nmol. The “MBP-specific auto antibody mediated hydrolysis” value ([3]; Patient 4) was 45.5 ± 3.8 pmol/min/nmol and the “MBP-specific auto antibody mediated hydrolysis” value ([3]; Patient 5) was 55.7 ± 6.1 pmol/min/nmol.

In the case of “glatiramer acetate [A2, reference compound]”, the “% Animals affected” value ([5]; 30 μg daily subcutaneous) is listed as 25(30) %, the “Clinical signs score” value [6] is listed as 1.1 and the “Adverse Reactions” value [10] is listed as “Low”. The “Clinical Observations: Decrease of relapse frequency” value [10] was “frequency—29%;”, the “Clinical Observations: EDSS score progression” value [10] was “Slowing EDSS” and the “MRI Data: decrease of active lesions” value [10] was “No statistical”. The “rates” value ([1]; Day 8 (start of treatment)) was 51.4 ± 8.2 pmol/min/nmol, the “rates” value ([1]; Day 16) was 55.4 ± 5.7 pmol/min/nmol and the “rates” value ([1]; Day 24) was 62.2 ± 5.7 pmol/min/nmol. For the same molecule, the “ESAMBPCAA activity at day 100” value ([7]; 30 μg daily subcutaneous) was 39.8 ± 4.1 pmol/min/nmol, the “MBP-specific auto antibody mediated hydrolysis” value ([3]; Patient 1) was 62.5 ± 1.2 pmol/min/nmol and the “MBP-specific auto antibody mediated hydrolysis” value ([3]; Patient 2) was 72.6 ± 7.7 pmol/min/nmol. For the same molecule, the “MBP-specific auto antibody mediated hydrolysis” value ([3]; Patient 3) was 51.2 ± 3.5 pmol/min/nmol, the “MBP-specific auto antibody mediated hydrolysis” value ([3]; Patient 4) was 47.7 ± 7.9 pmol/min/nmol and the “MBP-specific auto antibody mediated hydrolysis” value ([3]; Patient 5) was 65.7 ± 5.4 pmol/min/nmol.

In the case of “rituximab: monoclonal antibody, which selectively targets and depletes CD20+ B lymphocytes”, the “safety and efficacy of therapy” value [11] is given as “appears safe and effective to some extend”.

B1: Beta-Interferon: Beta-Interferon, existing standard of MS therapy (protein, UniProt P01574 22-187, looked up, variant C17S)
Interferon beta: MSYNLLGFLQRSSNFQSQKLLWQLNGRLEYCLKDRMNFDIPEEIKQLQQFQKEDAALTIYEMLQNIFAIFRQDSSSTGWNETIVENLLANVYHQINHLKTVLEEKLEKEDFTRGKLMSSLHLKRYYGRILHYLKAKEYSHCAWTIVRVEILRNFYFINRLTGYLRN
modifications: interferon beta-1b, lacks N-terminal Met
notes: Beta-Interferon, existing standard of MS therapy
In the case of B1, the “Adverse Reactions” value [12] is listed as “High”, the “Clinical Observations: Decrease of relapse frequency” value [12] is listed as “frequency—83%;” and the “Clinical Observations: EDSS score progression” value [12] is listed as “No slowing EDSS”. The “MRI Data: decrease of active lesions” value [12] was 83% decrease.
